{"source": "patent US12017994B2", "about": "(SYMBERIX, INC., priority 2017, dated 2024)", "key": {"[1]": {"tested_on": "β-glucuronidase activity in live, cultured bacterial cells", "assay": "β-glucuronidase activity in live, cultured bacterial cells (PNPG substrate)", "format": "cell-based", "conditions": "2 hour incubation"}, "[2]": {"tested_on": "GUS activity in live E. coli", "assay": "PNPG-PNP GUS cleavage assay, live E. coli"}, "purified E. coli GUS": {"biological_target": "purified E. coli GUS (Escherichia coli (strain K12), UniProt P05804)", "sequence (P05804 whole entry, looked up)": "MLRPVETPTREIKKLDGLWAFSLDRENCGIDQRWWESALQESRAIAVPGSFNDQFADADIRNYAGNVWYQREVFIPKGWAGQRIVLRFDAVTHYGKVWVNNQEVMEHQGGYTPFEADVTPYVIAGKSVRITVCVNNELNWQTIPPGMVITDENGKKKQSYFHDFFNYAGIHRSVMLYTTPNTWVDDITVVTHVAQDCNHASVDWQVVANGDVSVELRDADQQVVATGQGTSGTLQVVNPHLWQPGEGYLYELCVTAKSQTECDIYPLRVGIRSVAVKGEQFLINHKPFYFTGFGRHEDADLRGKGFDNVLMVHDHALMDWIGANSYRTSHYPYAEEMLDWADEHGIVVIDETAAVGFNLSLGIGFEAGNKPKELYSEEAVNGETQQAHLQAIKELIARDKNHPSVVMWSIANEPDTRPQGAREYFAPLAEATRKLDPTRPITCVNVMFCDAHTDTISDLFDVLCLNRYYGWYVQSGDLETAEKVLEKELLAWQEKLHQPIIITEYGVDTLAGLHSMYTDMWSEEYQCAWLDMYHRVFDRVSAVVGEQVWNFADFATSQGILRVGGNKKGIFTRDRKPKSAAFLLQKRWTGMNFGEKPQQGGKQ", "assay": "PNPG-PNP GUS cleavage assay, purified E. coli GUS", "format": "biochemical", "conditions": "preincubation one minute to four hours"}, "E. coli GUS": {"biological_target": "E. coli GUS (Escherichia coli (strain K12), UniProt P05804)", "sequence (P05804 whole entry, looked up)": "as above", "conditions": "30 minutes incubation, then NAD+ and UDH", "excerpt": "Addition of UDH and nicotinamide adenine dinucleotide (NAD+) to a reaction solution containing free GA results in the catalysis of free GA to D-glucurate and the concomitant reduction of NAD+ to NADH. NADH can be detected photometrically by monitoring absorbance at 340 nm (FIG. 4)."}, "[3]": {"biological_target": "Purified bacterial β-glucuronidases (Escherichia coli, UniProt P05804)", "format": "biochemical", "conditions": "PNPG substrate, 5 nM enzyme", "description": "Successful drug candidate compounds were subjected to numerous biochemical and cellular assays. Purified bacterial β-glucuronidases were challenged with compounds to determine inhibition properties in a standard, robust activity assay, utilizing p-nitrophenyl glucuronide (PNPG) as the enzymatic substrate."}, "[4]": {"conditions": "parent compound, read-out: Cell Based Inhibition IC50 (nM) Parent"}}, "note": "“And” between values parts separate entries of the source, which are not always exact repeats. Equal values may be shown once. “Also recorded” adds a separate entry of the source. Read-outs that look alike come from different tables or passages of the source.", "data": [{"molecule": "CCOc1ccc(NC(=O)N(CCO)Cc2cc3cc(C)cc(C)c3[nH]c2=O)cc1", "values": [{"measurement": "IC50", "setting": "[1]; [4]", "value": 890, "unit": "nM"}]}, {"molecule": "CCOc1ccc(NC(=S)N(CCO)Cc2cc3cc(C)cc(C)c3[nH]c2=O)cc1", "note": "[Inh1, reference compound]", "values": [{"measurement": "IC50", "setting": "[1]; [4]", "value": 890, "unit": "nM"}]}, {"molecule": "CCOc1ccc(NC(=S)N(CCO[C@@H]2O[C@H](C(=O)O)[C@@H](O)[C@H](O)[C@H]2O)Cc2cc3cc(C)cc(C)c3[nH]c2=O)cc1", "note": "[Inh1-G]", "values": [{"measurement": "increase in potency in live E. coli", "setting": "[2]; 1-min pre-incubation", "value": "approximately 20 fold"}, {"measurement": "increase in potency in live E. coli", "setting": "[2]; 2-hr pre-incubation", "value": "~100", "unit": "fold"}, {"measurement": "increase in potency in live E. coli", "setting": "[2]; 4-hr pre-incubation", "value": "~1000 fold and > 1000 fold"}, {"measurement": "IC50", "setting": "[2]; read-out: IC50 in live E. coli, after 4 hr incubation", "value": 0.001, "unit": "µM"}, {"measurement": "IC50", "setting": "purified E. coli GUS", "value": "~1", "unit": "µM"}, {"measurement": "IC50", "setting": "[1]; glucuronide of the compound, read-out: Cell Based Inhibition IC50 (nM) Glucuronide", "value": 8.8, "unit": "nM"}, {"measurement": "free GA / NADH formation after incubation with E. coli GUS (cleavage by GUS)", "setting": "E. coli GUS", "value": "No free GA was detected; also recorded: does not cleave"}]}, {"molecule": "Cc1cc(C)c2[nH]c(=O)c(CN(CCO)C(=O)Nc3ccccc3-c3ccccc3)cc2c1", "note": "[Ref #14′, 1-[(6,8-dimethyl-2-oxo-1H-quinolin-3-yl)methyl]-1-(2-hydroxyethyl)-3-(2-phenylphenyl)urea]", "values": [{"measurement": "IC50", "setting": "[3]", "value": "6.16 µM and 6.44 µM"}]}, {"molecule": "Cc1cc(C)c2[nH]c(=O)c(CN(CCO)C(=O)Nc3cccnc3)cc2c1", "note": "[Ref #18′, 1-[(6,8-dimethyl-2-oxo-1H-quinolin-3-yl)methyl]-1-(2-hydroxyethyl)-3-(3-pyridyl)urea]", "values": [{"measurement": "IC50", "setting": "[3]", "value": "> 50", "unit": "µM"}]}, {"molecule": "Cc1cc(C)c2[nH]c(=O)c(C(C)N(CCO)C(=O)Nc3ccccc3C(C)C)cc2c1", "note": "(stereo not shown) [Ref #29′, 1-[1-(6,8-dimethyl-2-oxo-1H-quinolin-3-yl)ethyl]-1-(2-hydroxyethyl)-3-(2-isopropylphenyl)urea]", "values": [{"measurement": "IC50", "setting": "[3]", "value": 6.44, "unit": "µM"}]}, {"molecule": "Cc1cc(C)c2[nH]c(=O)c(C(C)N(CCO)C(=O)Nc3ccc(F)cc3I)cc2c1", "note": "(stereo not shown) [Ref #30′, 1-[1-(6,8-dimethyl-2-oxo-1H-quinolin-3-yl)ethyl]-3-(4-fluoro-2-iodo-phenyl)-1-(2-hydroxyethyl)urea]", "values": [{"measurement": "IC50", "setting": "[3]", "value": 13, "unit": "µM"}]}, {"molecule": "Cc1cc(C)c2[nH]c(=O)c(C(C)N(CCO)C(=O)Nc3ccccc3C)cc2c1", "note": "(stereo not shown) [Ref #31′, 1-[1-(6,8-dimethyl-2-oxo-1H-quinolin-3-yl)ethyl]-1-(2-hydroxyethyl)-3-(o-tolyl)urea]", "values": [{"measurement": "IC50", "setting": "[3]", "value": "> 50", "unit": "µM"}]}, {"molecule": "COc1ccc(NC(=O)N(CCO)C(C)c2cc3cc(C)cc(C)c3[nH]c2=O)cc1", "note": "(stereo not shown) [Ref #34′, 1-[1-(6,8-dimethyl-2-oxo-1H-quinolin-3-yl)ethyl]-1-(2-hydroxyethyl)-3-(4-methoxyphenyl)urea]", "values": [{"measurement": "IC50", "setting": "[3]", "value": "> 50", "unit": "µM"}]}, {"molecule": "Cc1cccc(NC(=O)N(CCO)Cc2cc3cc(C)cc(C)c3[nH]c2=O)c1", "note": "[Ref #38′, 1-[(6,8-dimethyl-2-oxo-1H-quinolin-3-yl)methyl]-1-(2-hydroxyethyl)-3-(m-tolyl)urea]", "values": [{"measurement": "IC50", "setting": "[3]", "value": 1.66, "unit": "µM"}]}, {"molecule": "Cc1cc(C)c2[nH]c(=O)c(CN(CCO)C(=O)Nc3cccc(C(C)C)c3)cc2c1", "note": "[Ref #41′, 1-[(6,8-dimethyl-2-oxo-1H-quinolin-3-yl)methyl]-1-(2-hydroxyethyl)-3-(3-isopropylphenyl)urea]", "values": [{"measurement": "IC50", "setting": "[3]", "value": 6.73, "unit": "µM"}]}, {"molecule": "C#Cc1cc(F)ccc1NC(=O)N(CCO)Cc1cc2cc(C)cc(C)c2[nH]c1=O", "note": "[Ref #45′, 1-[(6,8-dimethyl-2-oxo-1H-quinolin-3-yl)methyl]-3-(2-ethynyl-4-fluoro-phenyl)-1-(2-hydroxyethyl)urea]", "values": [{"measurement": "IC50", "setting": "[3]", "value": 1.1, "unit": "µM"}]}, {"molecule": "chenodeoxycholate-glucuronide [reference compound]", "values": [{"measurement": "free GA / NADH formation after incubation with E. coli GUS (cleavage by GUS)", "setting": "E. coli GUS", "value": "detected only for the positive control"}]}]}
